Test results reported in US9144569B2, “Methods of administering an aromatase inhibitor, prostaglandin and GnRH for regulating ovulation in cattle” (UNIVERSITY OF SASKATCHEWAN, priority 2010, dated 2015).
Read-outs that look alike come from different tables or passages of the source.

Key:
[1] = Example I: plasma letrozole concentration (LC/MS/MS) and non-compartmental pharmacokinetics after single iv dose; assay type: in vivo, cattle; conditions: for AUC(0-t): read-out: Area under the curve (AUClast); for Cmax: read-out: Maximal concentration (Cmax); for clearance: read-out: Systemic clearance (Cls) (converted); for half-life: read-out: Half-life (T1/2) (converted); for MRT: read-out: Mean residence time (MRT)
Protocol: Heifers in which a CL was detected during the initial examination were given […] cloprostenol (PGF, Estrumate™, Schering-Plough Animal Health, Pointe-Claire, QC, Canada) intramuscularly (im) to induce regression of the CL and to synchronize ovulation. Heifers were examined daily by transrectal ultrasonography to detect ovulation. Transvaginal ultrasound-guided follicular aspiration of follicles ≧5 mm was performed five to eight days after ovulation to synchronize wave emergence. Heifers were examined daily by transrectal ultrasonography to detect follicular wave emergence, which was expected 1 to 1.5 days after follicular ablation. Four days after follicular ablation (approximately 2.5 days after follicular wave emergence), and at the time follicular dominance becomes apparent, heifers were assigned randomly to the following treatment groups and given a single intravenous dose of 1) 500 μg/kg of letrozole (high dose group, n=9), 2) 250 μg/kg of letrozole (medium dose group, n=10), 3) 125 μg/kg of letrozole (low dose group, n=10), or 4) 20 ml of phosphate buffered saline (PBS control group, n=10). For practical purposes, the dose of letrozole was calculated based on an average weight of 400 kg for all heifers. The average oral dose used in women (2.5-5 mg per day for 5 days) was used to estimate the medium dose for cattle. The high and low doses were set as double and half the medium dose, respectively. The day of treatment was defined as Day 0. For intravenous injection, letrozole was prepared in 95% ethanol at a final concentration of 5 mg per ml, resulting in an injection volume of 10-40 ml. The experiment was performed in four replicates (n=2-3 per group per replicate) and each heifer was used only once.
Blood samples were collected by jugular or coccygeal venipuncture into 10 ml heparinized vacuum tubes (Becton Dickinson Vacutainer Systems, Franklin Lakes, N.J., USA). Blood samples were collected at 0, 0.25, 0.5, 1, 1.5, 2, 3, 4, 6, 8, 12, 24, 36, 48 hours post-treatment using an indwelling jugular catheter as previously described and daily thereafter to the first post-treatment ovulation. Blood samples were centrifuged at 1500×g for 20 minutes; plasma was separated and stored in plastic tubes at −20° C.
Plasma concentrations of letrozole were determined using high performance liquid chromatography tandem mass spectrometry (LC/MS/MS). To extract letrozole from the samples, 250 μL of a buffer solution (0.1M ammonium) were added to 250 μL of plasma followed by the addition of 5 mL of methyl t-butyl ether (MTBE) and vortexed for 15 seconds. The organic layer was removed by pipetting and transferred to a fresh 15 mL plastic tube. This second tube was dried by gentle nitrogen gas flow. The dried extract was reconstituted in 1 mL of 100% ethanol, sonicated for 5 minutes and transferred to a labelled vial for further analysis. Separation was accomplished by HPLC (Agilent 1200, Santa Clara, Calif., USA) fitted with an analytical column (50×2.1 mm, 3 μm particle size; Thermo Scientific Betasil C18, Waltham, Mass., USA) operated at 35° C. Gradient conditions were used at a flow rate of 250 μL/min, starting at 85% A (0.1% acetic acid) and 15% B (0.1% acetic acid in acetonitrile). Initial conditions were held for 2 min and then ramped to 100% B at 6 min, held until 9 min, decreased to 0% B at 11 minutes, and returned to initial conditions at 13 minutes, and held constant until 15 minutes. Mass spectra were collected using a tandem mass spectrometer (Applied Bioscience SCIEX 3000, Foster City, Calif., USA) fitted with an electrospray ionization source, operated in the negative ionization mode. Chromatograms were recorded using multiple reaction monitoring (MRM) mode, where at least two transitions per-analyte were monitored. […]

[2] = tested on: Hereford-cross beef heifers; test: Example II: computer-assisted ultrasound image analysis of CL and dominant follicle; assay type: in vivo, cattle
Protocol: Ultrasound images from a subset of letrozole-treated (n=4-5 per group) and control (n=6) heifers were recorded throughout the duration of treatment for computer-assisted image analysis. Images were analyzed using a series of custom-developed computer algorithms optimized for ultrasonography ([…] Version 2.8© Saskatoon, Saskatchewan) on a Sun Sparc Station (Sun Microsystems, MT View, Calif.) computer. Echotexture was defined in terms of mean pixel value and pixel heterogeneity. Mean pixel values were quantified using a grey-scale ranging from 0 (black) to 255 (white). The pixel heterogeneity was the standard deviation of grey-scale values of all the pixels within the user-defined region of measurement. Spot analysis of the follicular antrum and corpus luteum, and line analysis of the peripheral antrum, follicular wall and stroma were done as previously described. For spot analyses, the follicular antrum and the CL wall were divided into four quadrants and the sampling area encompassed 75 to 80% of each quadrant. For line analyses, a straight line was drawn transversing the follicular wall from peripheral antrum to stroma and the pixel values along that line were measured in areas located within the 10 and 2 o'clock position of the follicles.
Statistical analyses were done using the Statistical Analysis System software package (SAS Learning Edition 9.1, 2006; SAS Institute Inc., Cary, N.C., USA). Time-series hormone data, plasma letrozole concentration, and follicular and luteal diameter profiles were analysed by repeated measures, using the PROC MIXED procedure. The main effects were treatment, time, and their interactions. […] Single point measurements (interwave and interovulatory intervals, interval from ovulation to onset of CL regression, mean and basal LH concentrations, LH pulse amplitude and frequency, and pharmacokinetic parameters for letrozole) were analysed by analysis of variance. […] If significant main effects or interactions (P≦0.05) were detected, Tukey's post-hoc test was used for multiple comparisons.

[3] = female, bovine, plasma, 125 ug/kg, 125 μg/kg single iv, n=9
[4] = female, bovine, plasma, 250 ug/kg, 250 μg/kg single iv, n=9
[5] = female, bovine, plasma, 500 ug/kg, 500 μg/kg single iv, n=9
[6] = female, bovine, plasma, iv, 125 ug/kg, 125 μg/kg single iv, n=9
[7] = female, bovine, plasma, iv, 250 ug/kg, 250 μg/kg single iv, n=9
[8] = female, bovine, plasma, iv, 500 ug/kg, 500 μg/kg single iv, n=9
[9] = female, bovine, plasma, iv, doses combined

**Q.** For N#Cc1ccc(C(c2ccc(C#N)cc2)n2cncn2)cc1 [Letrozole, letrozole], which “mean circulating level of letrozole during the first 96 hours” value ([1]; 250 μg/kg, single application) is on record?
**A.** 112 ± 16.26 ng/mL

**Q.** And the “Half-life (T1/2)” value ([1]; doses combined)?
**A.** 27.3 ± 0.42 h

**Q.** And the AUC(0-t) [1, 3]?
**A.** 8800 ± 720 ng·h/mL

**Q.** And the Cmax [1, 3]?
**A.** 1200 ± 250 ng/mL

**Q.** And the clearance [1, 3]?
**A.** 0.243 mL/min/kg

**Q.** What about the AUC(0-t) [1, 4] of the same compound?
**A.** 17300 ± 2000 ng·h/mL

**Q.** And the Cmax [1, 4]?
**A.** 1700 ± 180 ng/mL

**Q.** What about the clearance [1, 4] of the same compound?
**A.** 0.258 mL/min/kg

**Q.** And the AUC(0-t) [1, 5]?
**A.** 28100 ± 2150 ng·h/mL

**Q.** What about the Cmax [1, 5] of the same compound?
**A.** 2500 ± 370 ng/mL

**Q.** What about the clearance [1, 5] of the same compound?
**A.** 0.308 mL/min/kg

**Q.** What about the concentration at 96 hours ([1]; female, bovine, plasma, intravenous, 250 μg/kg given in a single dose, read-out: mean concentration of letrozole in the circulation at 96 hours) of the same compound?
**A.** 43.7 ± 8.79 ng/mL

**Q.** And the half-life [1, 6]?
**A.** 26.9 ± 0.95 h

**Q.** What about the MRT [1, 6] of the same compound?
**A.** 31.7 ± 2 h

**Q.** And the half-life [1, 7]?
**A.** 26.6 ± 1.18 h

**Q.** And the MRT [1, 7]?
**A.** 33.7 ± 2.98 h

**Q.** And the half-life [1, 8]?
**A.** 28.5 ± 1.05 h

**Q.** What about the MRT [1, 8] of the same compound?
**A.** 35.8 ± 1.43 h

**Q.** And the AUC(0-t) [1, 9]?
**A.** 18200 ± 4030 ng·h/mL

**Q.** And the half-life [1, 9]?
**A.** 27 h

**Q.** What about the Cmax [1, 9] of the same compound?
**A.** 1800 ± 270 ng/mL

**Q.** And the MRT [1, 9]?
**A.** 34 h

**Q.** What about the clearance [1, 9] of the same compound?
**A.** 0.27 mL/min/kg

**Q.** And the “mean plasma letrozole concentration throughout the 8-day period” value ([1]; high dose 500 μg/kg iv)?
**A.** 0.63 ± 0.04 µg/mL

**Q.** What about the “mean plasma letrozole concentration throughout the 8-day period” value ([1]; low dose 125 μg/kg iv) of the same compound?
**A.** 0.27 ± 0.04 µg/mL

**Q.** What about the “mean plasma letrozole concentration throughout the 8-day period” value ([1]; medium dose 250 μg/kg iv) of the same compound?
**A.** 0.44 ± 0.04 µg/mL

**Q.** What about the “mean pixel values and heterogeneity of the dominant follicle antrum (spot analysis)” value ([2]; 3-day regimen, any of the three periods) of the same compound?
**A.** not affected significantly

**Q.** And the “mean pixel values of the dominant follicle wall (line analysis), pre- to post-treatment” value ([2]; treated Days 1 to 3, P<0.06)?
**A.** increased

**Q.** And the “mean pixel values or heterogeneity along the follicular wall (line analysis)” value ([2]; treated Days 3 to 5 (printed Days 3 and 5))?
**A.** no effect

**Q.** What about the “mean pixel values or heterogeneity along the follicular wall (line analysis)” value ([2]; treated Days 5 to 7 (printed Days 5 and 7)) of the same compound?
**A.** no effect
